Reference: ChEMBL document CHEMBL3880422, “C-terminal modified oxamyl dipeptides as inhibitors of the ICE/ced-3 family of cysteine proteases” (2007)

Legend:
Caspase-1 (Mus musculus) = molecular target: T1, Caspase-1 (Mus musculus) (UniProt P29452); assay: Inhibition of mouse recombinant ICE assessed as ratio of irreversible rate constant K3 to dissociation constant of the reversible binding step Ki pre-incubated for 60 mins with Acetyl-Tyr-Val-Ala-Asp-amino-4-methylcoumarin substrate followed by enzyme addition by fluorescence based assay
T1 sequence (whole entry): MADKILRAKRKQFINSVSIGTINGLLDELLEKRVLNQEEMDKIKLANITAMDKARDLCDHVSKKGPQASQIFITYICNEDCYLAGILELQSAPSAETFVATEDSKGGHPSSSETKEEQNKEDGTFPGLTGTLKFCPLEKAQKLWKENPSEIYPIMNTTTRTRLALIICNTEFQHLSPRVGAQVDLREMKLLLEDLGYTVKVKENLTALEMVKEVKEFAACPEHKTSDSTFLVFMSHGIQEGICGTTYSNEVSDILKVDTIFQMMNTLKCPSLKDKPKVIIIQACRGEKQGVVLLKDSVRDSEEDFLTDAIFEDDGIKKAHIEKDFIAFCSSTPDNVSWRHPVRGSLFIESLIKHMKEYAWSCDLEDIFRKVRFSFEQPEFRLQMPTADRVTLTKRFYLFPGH

Caspase-8 (Homo sapiens) = Caspase-8 (Homo sapiens) (UniProt Q14790); assay: (§1) Inhibition of recombinant MCH5 (unknown origin) assessed as ratio of irreversible rate constant K3 to dissociation constant of the reversible binding step Ki pre-incubated for 60 mins with Acetyl-Tyr-Val-Ala-Asp-amino-4-methylcoumarin substrate followed by enzyme addition by fluorescence based assay
Caspase-3 (Homo sapiens) = molecular target: T2, Caspase-3 (Homo sapiens) (UniProt P42574); assay: as §1, with “CPP32” for “MCH5”
T2 sequence (whole entry): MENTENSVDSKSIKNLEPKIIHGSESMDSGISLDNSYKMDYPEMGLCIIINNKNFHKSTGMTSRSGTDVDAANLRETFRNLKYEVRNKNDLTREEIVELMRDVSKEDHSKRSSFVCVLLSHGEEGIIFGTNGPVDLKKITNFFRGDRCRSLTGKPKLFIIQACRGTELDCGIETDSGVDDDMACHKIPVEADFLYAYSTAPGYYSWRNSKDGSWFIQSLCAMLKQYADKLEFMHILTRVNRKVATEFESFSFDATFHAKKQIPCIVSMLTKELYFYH

Caspase-6 (Homo sapiens) = molecular target: T3, Caspase-6 (Homo sapiens) (UniProt P55212); assay: Inhibition of recombinant MCH2 (unknown origin) assessed as ratio of irreversible rate constant K3 to dissociation constant of the reversible binding step Ki pre-incubated for 60 mins with Acetyl-Tyr-Val-Ala-Asp-amino-4-methylcoumarin substrate followed by enzyme addition by fluorescence based assay
T3 sequence (whole entry): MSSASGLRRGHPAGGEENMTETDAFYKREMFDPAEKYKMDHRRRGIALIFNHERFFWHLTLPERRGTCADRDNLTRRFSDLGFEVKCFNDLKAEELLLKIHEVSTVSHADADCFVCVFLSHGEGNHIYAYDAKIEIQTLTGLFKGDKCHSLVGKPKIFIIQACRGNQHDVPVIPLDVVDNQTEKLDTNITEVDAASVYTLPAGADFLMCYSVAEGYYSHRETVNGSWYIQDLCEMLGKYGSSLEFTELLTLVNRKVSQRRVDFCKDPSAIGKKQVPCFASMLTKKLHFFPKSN

Chain of Caspase-8 (Homo sapiens) (Q14790 217-374 limits assumed): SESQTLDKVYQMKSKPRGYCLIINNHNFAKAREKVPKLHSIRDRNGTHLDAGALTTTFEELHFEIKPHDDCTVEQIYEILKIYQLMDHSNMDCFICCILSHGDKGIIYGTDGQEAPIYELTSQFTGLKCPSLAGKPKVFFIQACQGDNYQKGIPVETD
Chain of Caspase-8 (Homo sapiens) (Q14790 385-479 limits assumed): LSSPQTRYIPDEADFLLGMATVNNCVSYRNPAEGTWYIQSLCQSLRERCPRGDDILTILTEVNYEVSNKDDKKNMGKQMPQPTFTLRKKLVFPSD

In the case of `CC(C)[C@H](NC(=O)C(=O)NCc1ccccc1)C(=O)N[C@@H](CC(=O)O)C(=O)COc1c(F)c(F)cc(F)c1F`, the Ratio (Caspase-1 (Mus musculus)) is reported as 1.8e+06 M⁻¹ s⁻¹, the Ratio (Caspase-8 (Homo sapiens)) is reported as 472000 M⁻¹ s⁻¹ and the Ratio (Caspase-3 (Homo sapiens)) is reported as 21000 M⁻¹ s⁻¹. For the same compound, the Ratio (Caspase-6 (Homo sapiens)) was 16600 M⁻¹ s⁻¹.

For `CC(C)[C@H](NC(=O)C(=O)NC(c1ccccc1)c1ccccc1)C(=O)N[C@@H](CC(=O)O)C(=O)COc1c(F)c(F)cc(F)c1F`, the Ratio (Caspase-1 (Mus musculus)) was 201000 M⁻¹ s⁻¹, the Ratio (Caspase-8 (Homo sapiens)) was 48600 M⁻¹ s⁻¹ and the Ratio (Caspase-3 (Homo sapiens)) was 5380 M⁻¹ s⁻¹. It also gave a Ratio (Caspase-6 (Homo sapiens)) of 1430 M⁻¹ s⁻¹.

`CC(C)[C@H](NC(=O)C(=O)Nc1ccccc1C(F)(F)F)C(=O)N[C@@H](CC(=O)O)C(=O)COc1c(F)c(F)cc(F)c1F` showed a Ratio (Caspase-1 (Mus musculus)) of 1.04e+06 M⁻¹ s⁻¹, a Ratio (Caspase-8 (Homo sapiens)) of 41000 M⁻¹ s⁻¹ and a Ratio (Caspase-3 (Homo sapiens)) of 57400 M⁻¹ s⁻¹. It also gave a Ratio (Caspase-6 (Homo sapiens)) of 261000 M⁻¹ s⁻¹.

`C[C@H](NC(=O)C(=O)Nc1ccccc1C(C)(C)C)C(=O)N[C@@H](CC(=O)O)C(=O)COC(=O)c1c(Cl)cccc1Cl` showed a Ratio (Caspase-1 (Mus musculus)) of 43300 to 537000 M⁻¹ s⁻¹, a Ratio (Caspase-8 (Homo sapiens)) of 30200 to 39100 M⁻¹ s⁻¹ and a Ratio (Caspase-3 (Homo sapiens)) of 62900 to 142000 M⁻¹ s⁻¹. The Ratio (Caspase-6 (Homo sapiens)) was 6960 to 191000 M⁻¹ s⁻¹.

In the case of `CC(C)[C@H](NC(=O)C(=O)Nc1cc(C(C)(C)C)ccc1C(C)(C)C)C(=O)N[C@@H](CC(=O)O)C(=O)COc1c(F)c(F)cc(F)c1F`, the Ratio (Caspase-1 (Mus musculus)) is reported as 767000 M⁻¹ s⁻¹, the Ratio (Caspase-8 (Homo sapiens)) is reported as 51300 M⁻¹ s⁻¹ and the Ratio (Caspase-3 (Homo sapiens)) is reported as 70600 M⁻¹ s⁻¹. It also gave a Ratio (Caspase-6 (Homo sapiens)) of 8230 M⁻¹ s⁻¹.

With `CC(C)[C@H](NC(=O)C(=O)Nc1c(F)cccc1F)C(=O)N[C@@H](CC(=O)O)C(=O)COc1c(F)c(F)cc(F)c1F` the Ratio (Caspase-1 (Mus musculus)) was 2.68e+06 M⁻¹ s⁻¹, the Ratio (Caspase-8 (Homo sapiens)) was 1.83e+06 M⁻¹ s⁻¹ and the Ratio (Caspase-3 (Homo sapiens)) was 62900 M⁻¹ s⁻¹. The Ratio (Caspase-6 (Homo sapiens)) was 1.08e+06 M⁻¹ s⁻¹.

With `C[C@H](NC(=O)C(=O)NCc1cccc2ccccc12)C(=O)N[C@@H](CC(=O)O)C(=O)COc1c(F)c(F)cc(F)c1F` the Ratio (Caspase-1 (Mus musculus)) was 2.59e+06 M⁻¹ s⁻¹, the Ratio (Caspase-8 (Homo sapiens)) was 1.26e+06 M⁻¹ s⁻¹ and the Ratio (Caspase-3 (Homo sapiens)) was 158000 M⁻¹ s⁻¹. The Ratio (Caspase-6 (Homo sapiens)) was 335000 M⁻¹ s⁻¹.

`CC(C)[C@H](NC(=O)C(=O)Nc1ccccc1)C(=O)N[C@@H](CC(=O)O)C(=O)COc1c(F)c(F)cc(F)c1F` showed a Ratio (Caspase-1 (Mus musculus)) of 1.49e+06 M⁻¹ s⁻¹, a Ratio (Caspase-8 (Homo sapiens)) of 598000 M⁻¹ s⁻¹ and a Ratio (Caspase-3 (Homo sapiens)) of 36000 M⁻¹ s⁻¹. The Ratio (Caspase-6 (Homo sapiens)) was 25500 M⁻¹ s⁻¹.

Compound `C[C@H](NC(=O)C(=O)Nc1ccccc1F)C(=O)N[C@@H](CC(=O)O)C(=O)COc1c(F)c(F)cc(F)c1F` has a Ratio (Caspase-1 (Mus musculus)) of 339000 M⁻¹ s⁻¹, a Ratio (Caspase-8 (Homo sapiens)) of 170000 M⁻¹ s⁻¹ and a Ratio (Caspase-3 (Homo sapiens)) of 478000 M⁻¹ s⁻¹. For the same compound, the Ratio (Caspase-6 (Homo sapiens)) was 212000 M⁻¹ s⁻¹.

Compound `CCCCCCCc1ccc(NC(=O)C(=O)N[C@H](C(=O)N[C@@H](CC(=O)O)C(=O)COc2c(F)c(F)cc(F)c2F)C(C)C)cc1` has a Ratio (Caspase-1 (Mus musculus)) of 657000 M⁻¹ s⁻¹, a Ratio (Caspase-8 (Homo sapiens)) of 155000 M⁻¹ s⁻¹ and a Ratio (Caspase-3 (Homo sapiens)) of 11200 M⁻¹ s⁻¹. It also gave a Ratio (Caspase-6 (Homo sapiens)) of 50000 M⁻¹ s⁻¹.

`C[C@H](NC(=O)C(=O)Nc1ccccc1Cl)C(=O)N[C@@H](CC(=O)O)C(=O)COC(=O)c1c(Cl)cccc1Cl` showed a Ratio (Caspase-1 (Mus musculus)) of 278000 to 1.94e+06 M⁻¹ s⁻¹, a Ratio (Caspase-8 (Homo sapiens)) of 396000 to 1.63e+06 M⁻¹ s⁻¹ and a Ratio (Caspase-3 (Homo sapiens)) of 323000 to 842000 M⁻¹ s⁻¹. For the same compound, the Ratio (Caspase-6 (Homo sapiens)) was 281000 to 745000 M⁻¹ s⁻¹.

In the case of `C[C@H](NC(=O)C(=O)Nc1cc(C(F)(F)F)ccc1N1CCOCC1)C(=O)N[C@@H](CC(=O)O)C(=O)COP(=O)(c1ccccc1)c1ccccc1`, the Ratio (Caspase-1 (Mus musculus)) is reported as 369000 M⁻¹ s⁻¹, the Ratio (Caspase-8 (Homo sapiens)) is reported as 441000 M⁻¹ s⁻¹ and the Ratio (Caspase-3 (Homo sapiens)) is reported as 100000 M⁻¹ s⁻¹. The Ratio (Caspase-6 (Homo sapiens)) was 98500 M⁻¹ s⁻¹.

With `CC(C)[C@H](NC(=O)C(=O)Nc1cccc2ccccc12)C(=O)N[C@@H](CC(=O)O)C(=O)COc1c(-c2ccccc2)oc2ccccc2c1=O` the Ratio (Caspase-1 (Mus musculus)) was 82100 M⁻¹ s⁻¹, the Ratio (Caspase-8 (Homo sapiens)) was 0 M⁻¹ s⁻¹ and the Ratio (Caspase-3 (Homo sapiens)) was 43600 M⁻¹ s⁻¹. For the same compound, the Ratio (Caspase-6 (Homo sapiens)) was 0 M⁻¹ s⁻¹.

`C[C@H](NC(=O)C(=O)Nc1cc(C(F)(F)F)ccc1N1CCCC1)C(=O)N[C@@H](CC(=O)O)C(=O)COP(=O)(c1ccccc1)c1ccccc1` was tested, and the Ratio (Caspase-1 (Mus musculus)) was 1.5e+06 M⁻¹ s⁻¹, the Ratio (Caspase-8 (Homo sapiens)) was 933000 M⁻¹ s⁻¹ and the Ratio (Caspase-3 (Homo sapiens)) was 78600 M⁻¹ s⁻¹. For the same compound, the Ratio (Caspase-6 (Homo sapiens)) was 202000 M⁻¹ s⁻¹.

For `C[C@H](NC(=O)C(=O)NC12CC3CC(CC(C3)C1)C2)C(=O)N[C@@H](CC(=O)O)C(=O)COP(=O)(c1ccccc1)c1ccccc1`, the Ratio (Caspase-1 (Mus musculus)) was 27600 to 242000 M⁻¹ s⁻¹, the Ratio (Caspase-8 (Homo sapiens)) was 50400 to 643000 M⁻¹ s⁻¹ and the Ratio (Caspase-3 (Homo sapiens)) was 149000 to 243000 M⁻¹ s⁻¹. It also gave a Ratio (Caspase-6 (Homo sapiens)) of 124000 to 445000 M⁻¹ s⁻¹.
